Values of other authors, collected in US20160120180A1, “COMPOSITIONS AND METHODS FOR CONTROLLING REPLANT DISEASES OF PERENNIAL CROPS” (Adjuvants Unlimited LLC, priority 2014, published 2016).

Legend:
test plants = conditions: emulsion applied to soil at 2 and 4 grams of fatty acid per square foot
Meloidogyne incognita [1] = conditions: sprayed on plant foliage as a dilute emulsion
nematodes = conditions: soil-applied treatment on bermudagrass
Meloidogyne incognita [2] = conditions: in vitro

Q: Which results are given for `C=CCCCCCCCCC(=O)O` [undecylenic acid]?
A: Effect on test plants (phytotoxicity) (test plants): the test plants died; Systemic effects on nematodes (Meloidogyne incognita [1]): no systemic effects; Nematode number (nematodes): reduction in nematode number; Effect on isolated egg masses (Meloidogyne incognita [2]): destroyed isolated egg masses
